Results: ChEMBL document CHEMBL2203023, “Synopsis of some recent tactical application of bioisosteres in drug design” (J Med Chem, 2011)

Assays:
[1] = tested on: Human immunodeficiency virus 1; test: microbe, parasite or virus in culture
in vitro [2] = conditions: human, liver microsomes
in vitro [3] = conditions: mouse, liver microsomes
physchem [4] = test: physchem
physchem [5] = conditions: octanol/water
physchem [6] = conditions: octanol/water, pH 7.4
cells = conditions: Homo sapiens, Platelet, Plasma
physchem [7] = conditions: octanol/water, pH 7.4; remark: listed apart in the source
in vitro [8] = conditions: human, Caco-2
in vivo [9] = conditions: rat
physchem [10] = test: physchem; remark: listed apart in the source
in vitro [11] = conditions: human, Caco-2; remark: listed apart in the source
in vitro [12] = conditions: human, liver microsomes; remark: listed apart in the source
in vitro [13] = conditions: rat, liver microsomes
[14] = tested on: Respiratory syncytial virus; test: microbe, parasite or virus in culture; conditions: human respiratory syncytial virus
Syrian golden hamster = test: animal or person; conditions: Mesocricetus auratus
Platelet [15] = test: cells; conditions: Homo sapiens, Plasma
Platelet [16] = test: cells; conditions: Homo sapiens, Plasma; remark: listed apart in the source
clinical = conditions: human, in vivo
in vivo [17] = conditions: rat, po
Rattus norvegicus = species on record: Rattus norvegicus; test: animal or person; conditions: read-out: INH

`O=C1N(Cc2ccc(CO)cc2)[C@H](Cc2ccccc2)[C@H](O)[C@@H](O)[C@@H](Cc2ccccc2)N1Cc1ccc(CO)cc1` [DMP-323] showed an EC90 [1] of 57 nM.

Compound `CN(C)CCCCc1ccc(C(C)(C)C)cc1` has a microsomal CLint (in vitro [2]) of 16 µL/min/mg, a microsomal CLint (in vitro [3]) of 417 µL/min/mg and a solubility (physchem [4]) of under 1 µg/mL. For the same compound, the logP (physchem [5]) was 4.3 and the logD (physchem [6]) was 1.8.

In the case of `O=C(O)CCc1cccc(OCc2nc(-c3ccccc3)c(-c3ccccc3)o2)c1`, the EC50 (cells) is reported as over 80000 nM.

Compound `O=C(N[C@H]1c2ccccc2C[C@H]1O)[C@H](Cc1ccccc1)CC(O)C[C@@H](Cc1ccccc1)C(=O)N[C@H]1c2ccccc2C[C@H]1O` has an EC90 [1] of 23 nM.

For `O=C(CCCN1CCC(O)(c2ccc(Cl)cc2)CC1)c1ccc(F)cc1` [HALOPERIDOL], the logD (physchem [7]) was 2.42, the solubility (physchem [4]) was 90 µM and the Papp (in vitro [8]) was 18.9 ×10⁻⁶ cm/s.

For `CS(=O)(=O)c1ccc(-n2nc(C(F)(F)F)cc2-c2ccc(F)cc2)cc1` [SC-58125], the half-life (in vivo [9]) was 221 h.

For `O=C(O)Cn1ccc(C(=O)c2ccccc2)c1`, the logP (physchem [5]) was 1.23.

Work on `O=C(O)/C=C/c1cccc(CCc2nc(-c3ccccc3)c(-c3ccccc3)o2)c1` yielded an EC50 (cells) of 660 nM.

`O=C(O)COc1cccc(OCc2nc(-c3ccccc3)c(-c3ccccc3)o2)c1` gave an EC50 (cells) of 1200 nM.

`COc1ccc(C(CN(C)C)[Si]2(O)CCCCC2)cc1` (racemic) gave a logD (physchem [7]) of 0.92, a pKa (physchem [10]) of 9.7 and a logP (physchem [5]) of 3.21.

With `Cc1nccn1-c1ccc(NC(=O)c2cc(C(F)(F)F)nn2-c2ccc3onc(N)c3c2)c(F)c1` the Papp (in vitro [11]) was 7.41 ×10⁻⁶ cm/s.

`O=C(CCCN1CC[Si](O)(c2ccc(Cl)cc2)CC1)c1ccc(F)cc1` showed a half-life (in vitro [12]) of 65 min, a logD (physchem [7]) of 2.77 and a pKa (physchem [10]) of 9.27. The half-life (in vitro [13]) was 18 min, the solubility (physchem [4]) was 78 µM and the Papp (in vitro [8]) was 19.8 ×10⁻⁶ cm/s.

In the case of `CN(C)CCC1(Cc2ccc(C(C)(C)C)cc2)COC1`, the microsomal CLint (in vitro [2]) is reported as 6 µL/min/mg, the microsomal CLint (in vitro [3]) is reported as 13 µL/min/mg and the solubility (physchem [4]) is reported as 4100 µg/mL.

With `C=C(C)n1c(=O)n(Cc2nc3ccccc3n2CCCC#N)c2cnccc21` the half-life (in vitro [12]) was 11 min and the EC50 [14] was 3 nM.

With `CN(C)CCCCc1ccc(C2COC2)cc1` the microsomal CLint (in vitro [2]) was 2 µL/min/mg, the microsomal CLint (in vitro [3]) was 27 µL/min/mg and the solubility (physchem [4]) was 4000 µg/mL.

In the case of `COc1ccc(C2[C@@H](CCCc3ccccc3)C(=O)N2c2ccc(OC)cc2)cc1` (stereo not given in full), the ED50 (Syrian golden hamster) is reported as 2.2 mg/kg.

In the case of `Cc1ccc(-c2cc(C(F)(F)F)nn2-c2ccc(S(N)(=O)=O)cc2)cc1` [CELECOXIB], the half-life (in vivo [9]) is reported as 3.5 h.

In the case of `CN(C)C1(CCCc2ccc(C(C)(C)C)cc2)COC1`, the microsomal CLint (in vitro [2]) is reported as 13 µL/min/mg, the microsomal CLint (in vitro [3]) is reported as 580 µL/min/mg and the solubility (physchem [4]) is reported as 57 µg/mL.

For `COc1ccc(C(CN(C)C)C2(O)CCCCC2)cc1` (racemic) [VENLAFAXINE], the logD (physchem [7]) was 0.88 and the logP (physchem [5]) was 3.13.

With `O=C1[C@H](CC[C@H](O)c2ccc(F)cc2)[C@@H](c2ccc(O)cc2)N1c1ccc(F)cc1` [EZETIMIBE] the ED50 (Syrian golden hamster) was 0.04 mg/kg.

`Cc1nccn1-c1ccc(NC(=O)c2cc(C(F)(F)F)nn2-c2ccc3onc(N)c3c2)cc1` showed a Papp (in vitro [11]) of 0.82 ×10⁻⁶ cm/s.

With `O=C(N[C@H]1c2ccccc2C[C@H]1O)[C@H](Cc1ccccc1)C[Si](O)(O)C[C@@H](Cc1ccccc1)C(=O)N[C@H]1c2ccccc2C[C@H]1O` the EC90 [1] was 170 nM.

In the case of `O=C(c1ccccc1)c1ccn(-c2cc(F)c(O)c(F)c2)c1`, the logP (physchem [5]) is reported as 3.56.

`NCc1cc(F)c(O)c(F)c1` gave a logP (physchem [5]) of 1.01.

`O=C(O)CCc1cccc(CCc2nc(-c3ccccc3)c(-c3ccccc3)o2)c1` showed an EC50 (cells) of 16000 nM.

For `Cc1nccn1-c1ccc(NC(=O)c2cc(C(F)(F)F)nn2-c2ccc3onc(N)c3c2)c(C#N)c1`, the Papp (in vitro [11]) was under 0.1 ×10⁻⁶ cm/s.

In the case of `O=C(O)COc1cccc(-c2ncoc2-c2nc(-c3ccccc3)c(-c3ccccc3)o2)c1`, the EC50 (Platelet [15]) is reported as 160 nM and the EC50 (Platelet [16]) is reported as 160 nM.

`O=C(O)/C=C/c1cccc(OCc2nc(-c3ccccc3)c(-c3ccccc3)o2)c1` gave an EC50 (cells) of 14000 nM.

Work on `CN(C)CCCCc1ccc(C2(C)COC2)cc1` yielded a microsomal CLint (in vitro [3]) of 43 µL/min/mg and a solubility (physchem [4]) of 4400 µg/mL.

`NCc1ccc(F)c(O)c1F` gave a logP (physchem [5]) of 1.01.

Compound `CC#CCC(C)[C@H](O)/C=C/[C@@H]1[C@H]2C/C(=C/CCCC(=O)O)C[C@H]2C[C@H]1O` (stereo not given in full) [ILOPROST] has a half-life (clinical) of 20 min.

`O=C(O)COc1cccc(/C=C\c2nc(-c3ccccc3)c(-c3ccccc3)o2)c1` showed an EC50 (Platelet [15]) of 180 nM and an EC50 (Platelet [16]) of 180 nM.

With `COC(=O)N[C@@H](C(=O)NCCCC[C@H](CO)N(CC(C)C)S(=O)(=O)c1ccc(CN)cc1)C(c1ccccc1)c1ccccc1` the EC50 [1] was 30 nM.

Work on `Oc1c(F)cccc1F` yielded a pKa (physchem [10]) of 7.12.

In the case of `CCc1cc(C#N)ccc1Nc1c(N[C@H](C)C(C)(C)C)c(=O)c1=O`, the bioavailability (in vivo [17]) is reported as 70%.

With `O=C(O)COc1cccc(-c2ocnc2-c2nc(-c3ccccc3)c(-c3ccccc3)o2)c1` the EC50 (Platelet [15]) was 27 nM and the EC50 (Platelet [16]) was 27 nM.

With `O=c1c(O)c(-c2ccccc2)c1=O` the pKa (physchem [10]) was 0.37.

`O=S(=O)(Nc1ccncc1Oc1ccccc1)C(F)(F)F` gave an inhibition in vivo at 30 mg/kg (Rattus norvegicus) of 54.1%.

`CN(C)CCCC1(c2ccc(C(C)(C)C)cc2)COC1` showed a microsomal CLint (in vitro [3]) of 147 µL/min/mg and a solubility (physchem [4]) of 270 µg/mL.
